Our source for the GI50 and TGI values is PubChem BioAssay (NCI).

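Exposure lasted 48 hours, with cells grown in 96-well plates and compounds tested at five concentrations. At the GI50, growth is halved. At the TGI there is no net growth.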

The subject of the assay is MDA-MB-468 breast. Briefly: NCI tumour cell line growth inhibition, 48 h.
Turning to `O=C1NCc2ccc3c(-c4cccc(Cl)c4)c[nH]c3c21`, the GI50 was 231 nM and the TGI was greater than 23100 nM.
In the same order, the values of `COc1cc2c(cc1OC)C(=O)/C(=C/c1cccc(OCC(=O)c3ccccc3)c1)C2` are 8210 nM and greater than 100000 nM.
In the same order, the values of `CCOc1cc2ncc(C#N)c(Nc3ccc(OCc4cccc(F)c4)c(Cl)c3)c2cc1NC(=O)CC1CCSS1` (configuration not stated) are 427 nM and 1220 nM.
In the same order, the values of `C=C1C(=O)O[C@H]2[C@H]1CC/C(COC(=O)c1cc3cc(F)ccc3[nH]1)=C\CC[C@@]1(C)O[C@@H]21` are 1860 nM and 3790 nM.
`Cc1ccc2[nH]cc(-c3nc(-c4c[nH]c5ncccc45)cs3)c2c1`: the GI50 is greater than 100000 nM and the TGI was greater than 100000 nM.
`Cc1cc(-c2ncc(CC(=O)Nc3ccc(-c4cnccn4)cn3)cc2C)ccn1`: the GI50 is 3180 nM and the TGI was 57500 nM.
In the same order, the values of `C=C1C(=O)O[C@H]2[C@H]1CC/C(Cn1cc(CNC(=O)Cc3cn(C(=O)c4ccc(Cl)cc4)c4ccc(OC)cc34)nn1)=C\CC[C@@]1(C)O[C@@H]21` are 1220 nM and 2950 nM.
In the same order, the values of `CCOC(=O)c1ccc(NC(=O)N2CC(C)OC(C)C2)cc1` (configuration not stated) are greater than 100000 nM and greater than 100000 nM.
In the same order, the values of `COc1cc(C2C=C(c3cccc(NC(C)=O)c3)Nc3ncnn32)cc(OC)c1OC` (configuration not stated) are 852 nM and greater than 23800 nM.
For the compound `COc1ccc2nc(N/N=C(\C)c3ccccn3)cc(C)c2c1`, the GI50 was 233 nM and the TGI was found to be 815 nM.
In the same order, the values of `O=C(CSc1nc2ccccc2[nH]1)Nc1ccc(-c2nc3ccccc3s2)c(Cl)c1` are 4450 nM and greater than 100000 nM.
As for `O=C(Nc1ccc(N2CCNCC2)cc1)c1[nH]ncc1Nc1ncnc2sc3c(c12)CCC3`, the GI50 was 481 nM and the TGI was 2230 nM.
In the same order, the values of `Cc1ccc(-[n+]2c3cc(N)c(C)cc3nc3cc(C)c(Nc4ccccc4)cc32)cc1` are 108 nM and 371 nM.
For the compound `COc1ccc(Cl)cc1Nc1nc(C(F)(F)F)ccc1C(=O)N/N=C/c1c(Cl)cccc1Cl`, the GI50 is 6660 nM and the TGI was greater than 100000 nM.
In the same order, the values of `COc1cc(C2CC(c3ccc(C)cc3)=NN2C=O)ccc1Oc1ccnc2cc(Cl)ccc12` (configuration not stated) are 2590 nM and 37800 nM.
In the same order, the values of `CS(=O)(=O)CCNCc1nc(-c2ccc3ncnc(Nc4ccc(F)c(Cl)c4)c3c2)cs1` are 257 nM and 2750 nM.
In the same order, the values of `Cc1ccc(CNc2c3ccccc3nc3ccccc23)cc1` are 1490 nM and 3680 nM.
Regarding `CCOC(=O)c1c2c(n3ccc(NC(=O)CCN4CCCC4)cc13)C(=O)c1ncccc1C2=O`, the GI50 is 1710 nM and the TGI was 3350 nM.
In the same order, the values of `CNC(=O)c1cc(OC2CCC(NC(=O)Nc3ccc(Cl)c(C(F)(F)F)c3)CC2)ccn1` (configuration not stated) are 3350 nM and 14500 nM.
In the same order, the values of `COC(=O)N[C@H]1CCc2c(Br)c(OC)c(OC)c(OC)c2-c2ccc(SC)c(=O)cc21` are less than 10 nM and 1230 nM.
In the same order, the values of `CC(=O)Nc1ccc2c(c1)c(C1=C(c3cn(C)c4ccccc34)C(=O)NC1=O)cn2C` are 790 nM and greater than 25000 nM.
Consider `O=[N+]([O-])C1C(c2ccccc2)C12c1ccccc1-c1ccccc12` (configuration not stated), for which the GI50 was 582 nM and the TGI worked out at 13600 nM.
In the same order, the values of `COc1ccc(-c2nc3sc(C)cn3c2/C=C/C(=O)c2cc(OC)c(OC)c(OC)c2)cc1` are 2760 nM and 9350 nM.
In the same order, the values of `O=C(CCCCCCSc1nc(-c2ccccc2)cc(-c2ccc(Cl)cc2)n1)NO` are 2020 nM and 5790 nM.
Turning to `C=C1CC2(OC1=O)C(=O)N(CCCCCCCN1C(=O)C3(CC(=C)C(=O)O3)c3ccccc31)c1ccccc12` (configuration not stated), the GI50 is 984 nM and the TGI is 3740 nM.
In the same order, the values of `COc1ccc2c(c1)[nH]c(=O)c1c3cc(C)c(C)cc3cn21` are 155 nM and 1590 nM.
